# Laboratory results reported in US20110245323A1, “RIG-Like Helicase Innate Immunity Inhibits VEGF-Induced Tissue Responses” (Yale University, priority 2006, published 2011).
# What was measured:
# [1] = test system: CC10-rtTA-VEGF165 transgenic mice; test: VEGF-induced angiogenesis, anti-CD31 immunohistochemistry and vessel area density; type: in vivo, mouse; details: for Vascularity (%): VEGF-induced tissue responses, TLR agonist administration, PBS control 43
# Method: (§1) The CC10-rtTA-VEGF165 transgenic mice used in this study were generated and used as described previously (Lee et al., 2004, Nature Medicine 10:1095-103), which reference is incorporated herein in its entirety. These animals were housed under barrier conditions in the animal facility at Yale University School of Medicine. In these experiments 6-8 week old transgenic (Tg+) animals and their transgene negative littermate controls (Tg−) were randomized to receive water with doxycycline (dox) (0.5 mg/ml) or normal water. Two weeks later they were sacrificed and the VEGF-induced phenotype was evaluated as described below (Lee et al., 2004, Nature Medicine 10:1095-103).
# (§2) To define the effects of these agents on the tissue responses induced by VEGF, two experimental procedures were used. In the first, a pretreatment protocol was used. In these experiments the noted innate immunity agonist ([…] unless otherwise indicated) or its vehicle control (PBS) were administered intranasally and aspirated into the lungs of randomized Tg+ and Tg− mice starting one day before the Dox water treatment. The doses were administered to the mice every other day during the 2 week doxyxycline (dox) treatment interval.
# (§3) To determine if the innate immunity agonists altered established VEGF-induced tissue responses, a “post treatment” protocol was used in selected experiments. In these experiments the innate immunity agonist was administered 2 days or 14 days after the doxycycline and VEGF-induced responses were evaluated 2 weeks later.
# (§4) To define the effects of Poly(I:C) a number of protocols were employed. In most experiments, a pretreatment-2 week protocol was employed. In these experiments, WT and Tg+ mice were treated with Poly(I:C) (30 μg in 50 lambda unless otherwise indicated; Amersham Biosciences, N.J.) or vehicle control via nasal aspiration and transgene activation was accomplished via the administration of dox (0.5 mg/ml) in the animal's drinking water 24 hours later. The Poly(I:C) was administered every other day and the dox was administered continuously for up to 2 weeks.
# In selected experiments a pretreatment protocol and shorter treatment interval was employed. In these experiments, WT and Tg+ mice were treated with Poly(I:C) (30 μg/mouse/dose in 50 μl) or vehicle control via nasal aspiration and transgene activation was accomplished with dox 24 hours later. The animals were then randomized to not receive or receive one additional dose of Poly(I:C) 24 hours later and dox was administered continuously during this 2 week interval.
# (§5) Lastly, in selected experiments post-transgene activation protocols were employed. In these experiments dox was administered for 2 days or 2 weeks. The Poly(I:C) was then administered via intranasal aspiration every other day for 2 weeks as disclosed elsewhere herein. In selected pre-treatment and post-transgene activation experiments, unmethylated CpG (CpG-B) (Keck Center, Yale University) was also employed at similar doses. At the end of these intervals, assessments of angiogenesis (anti-CD31 immunohistochemistry), vascular permeability (Evan's blue dye extravasation, wet to dry lung weight measurements, BAL protein concentration), BAL and tissue inflammatory cell infiltration and mucus metaplasia (periodic acid-Schiff (PAS) staining, MUC5AC immunoblotting) were undertaken. In all cases experiments were designed to compare Tg− and Tg+ mice on normal water and Tg− and Tg+ mice on dox water.
# [2] = test system: CC10-rtTA-VEGF165 transgenic mice; test: BAL inflammatory cell recovery, VEGF-induced inflammation; type: in vivo, mouse; details: for Total cells (×10^4): VEGF-induced tissue responses, TLR agonist administration, PBS control 50
# Method: as §1, §2, §3, §4, §5
# Mice were sacrificed using intraperitoneal ketamine/xylazine injection and the trachea was cannulated and perfused with two 0.9 nil aliquots of cold saline. The cellular contents and BAL fluid were separated by centrifugation, the BAL cell number was quantitated and cell differential was assessed. The BAL fluid was stored in aliquots at −80° C.
# [3] = test system: CC10-rtTA-VEGF165 transgenic mice; test: VEGF-induced pulmonary hemorrhage in BAL fluids; type: in vivo, mouse; details: Tg+ mice, pretreatment, vs vehicle
# Method: as §1, with “10:1095-103). […]” for “10:1095-103).”
# Mice were sacrificed using intraperitoneal ketamine/xylazine injection and the trachea was cannulated and perfused with two 0.9 nil aliquots of cold saline. The cellular contents and BAL fluid were separated by centrifugation, the BAL cell number was quantitated and cell differential was assessed. […]
# The lungs were removed en bloc as described elsewhere herein, inflated at 25 cm pressure with PBS containing 0.5% low melting point agarose gel, fixed in Streck solution (Streck Laboratories, La Vista, Nebr.), embedded in paraffin, sectioned and stained. […] Pulmonary hemorrhage was evaluated by quantitating BAL red blood cell number with a Coulter counter (Beckman Coulter).
# [4] = test system: CC10-rtTA-VEGF165 transgenic mice; test: VEGF-induced mucus metaplasia (PAS staining, BAL MUC5AC); type: in vivo, mouse; details: Tg+ mice, pretreatment, vs vehicle
# Method: as §4, §5
# The lungs were removed en bloc as described elsewhere herein, inflated at 25 cm pressure with PBS containing 0.5% low melting point agarose gel, fixed in Streck solution (Streck Laboratories, La Vista, Nebr.), embedded in paraffin, sectioned and stained. Hematoxylin and eosin and PAS stains were performed in the Research Histology Laboratory of the Department of Pathology at the Yale University School of Medicine. Pulmonary hemorrhage was evaluated by quantitating BAL red blood cell number with a Coulter counter (Beckman Coulter).
# The levels of MUC5AC, the major airway mucin in BAL fluids, were assessed as previously described (Lee et al., 2008, Am J Respir Cell Mol Biol 39:739-746). In these evaluations, 0.1 ml of BAL fluid was slot blotted onto nitrocellulose membranes using a Minifold II slot blot apparatus (Schleicher & Schuell). After air-drying, the membrane was blocked with 5% skim milk, washed three times and incubated overnight at 4° C. with a monoclonal antibody against Mucin-5AC (45M1; NeoMarkers, Union City, Calif.). After washing, the membranes were incubated for 1 hour at room temperature with horseradish peroxidase-conjugated anti-mouse immunoglobulin (Ig)-G (Pierce). Immunoreactive mucins were detected using a chemiluminescent procedure (ECL Plus Western blotting detection system, Amersham Biosciences) according to instructions from the manufacturer.
# human patients = details: cited from earlier work
Compound,Vascularity (%) [1] [%],Total cells (×10^4) [2],"VEGF-induced angiogenesis (vascular density, appearance, sprouting) ([1]; Tg+ mice, pretreatment starting 1 day before dox, vs vehicle)",VEGF-induced bleeding / hemorrhage in BAL fluids [3],"total recovery of inflammatory cells during BAL / VEGF-induced inflammation ([2]; Tg+ mice, pretreatment, vs vehicle)","VEGF-induced mucus metaplasia (PAS stains, BAL MUC5AC accumulation) [4]","toxicity, lower dose (human patients; 10 to 50 mcg/kg)","toxicity and efficacy in human patients, high doses (human patients; 200-300 mcg/kg IV)"
Lipopolysaccharide [LPS],32.2,156 ×10^4,–,–,–,–,–,–
CCNCc1nc2c(N)nc3ccccc3c2n1CC(C)(C)O [Gardiquimod],32.4,29 ×10^4,decreased,decreased,decreased,decreased,–,–
poly-ICLC,–,–,–,–,–,–,little or no toxicity,toxic and largely ineffectual
